Common to all, as to type: cell-based
Assay [1] concerns Salmonella typhimurium TA98 strain and TA100 strain. Nature of the assay: Growth inhibitory action and bactericidal action on salmonella (preincubation method, with and without S9 mix). Particulars: TA98 and TA100, presence or absence of S9 mix; for Bactericidal action: lowest concentration at which all bacterial cells were killed; for Growth inhibition: lowest concentration at which growth was inhibited. How it is done:
Growth inhibitory action and bactericidal action on salmonella
1) Preparation of Test-Substance Solution
Test substances (compounds listed in Table 1) each were prepared by dissolving it in DMSO when used. Preparation was made in such a manner that the highest dose became 5000 μg/plate and the dose lower than this was prepared by a dilution method. In the table, reference numerals of individual compounds correspond to the numbers of the individual compounds synthesized in the above Examples (the same applies to the following Tables).
Salmonella typhimurium TA98 strain and TA100 strain were used.
These were supplied by Japan Bioassay Research Center, proliferated and examined for genetic properties and other properties in accordance with customary methods, in advance. After these strains were confirmed to have these properties, they are cryopreserved (−80° C.) with a DMSO-added medium; and thawed for use in each test.
3) A cryopreserved strain was thawed and inoculated in a 2.5% aqueous nutrient broth (OXOID No. 2) solution and cultured while shaking at 37° C. for 7 hours to obtain a cell suspension, which was subjected to tests.
A minimum glucose agar plate medium (Vital Media AMT-S, manufactured by Kyokuto Pharmaceutical Industrial Co., Ltd.) was used.
The top agar was prepared when used by blending an aqueous solution of 0.5 mM L-histidine and 0.5 mM D-(+)-biotin with an aqueous solution prepared by adding Bacto Agar (Difco) (0.6%) and sodium chloride (0.5%).
S9 was purchased from Kikkoman; whereas a cofactor was previously prepared in accordance with a method known in the art. They were mixed in a customary method to prepare S9 mix.
Using a test system containing S9 mix and a test system containing no S9 mix, a test was carried out in accordance with a preincubation method. As the dose selection, the highest dose was specified as […], which was then serially diluted in a common ratio of 2 to prepare a total of 15 doses to be used in the test.
To a sterile test tube, a test solution (0.1 mL) and 0.1 M Na-phosphate buffer or S9 mix (0.5 mL) and a cell suspension (0.1 mL) were sequentially dispensed. Pre-incubation was carried out at 37° C. for 20 minutes while shaking. After completion of the pre-incubation, top agar (2 mL) kept warm at 45° C. was added, mixed and placed on a minimum glucose agar plate medium. After solidification, the plate was turned upside down and cultured at 37° C. for 48 hours.
After completion of the culture, the state of microbial growth was observed by a stereomicroscope. After a precipitate on the plate was observed, revertant colonies were counted by the naked eye or a colony counter.
7) Criteria for Determination
Growth of both TA98 and TA100 strains was examined in the presence or absence of S9 mix. Among the resultant concentrations at which growth was inhibited, the lowest concentration was specified as the growth inhibitory concentration. Similarly, the bactericidal concentration was specified as the lowest concentration at which all bacterial cells were killed.

In assay [2] the test system is Streptococcus mutans NBRC13955. Put plainly: Antimicrobial test on oral bacteria, bactericidal effect test. Particulars: for bactericidal action on Streptococcus mutans cells: one minute. As for the experimental part: Antimicrobial Test on Oral Bacteria
1. Antimicrobial Action on Streptococcus mutans
The antimicrobial effect of two types of test substances (Compound 3 and Compound 7) on Streptococcus mutans was evaluated.
1) Preparation of Test Microbe
A microbe strain (Streptococcus mutans NBRC13955) cryopreserved was cultured in TSA medium at 36±1° C. for 18 to 24 hours. The cultured microbial cells were transferred to a fresh TSA medium and cultured at 36±1° C. for 18 to 24 hours. The grown colonies were scraped out and suspended in sterile ion-exchange water to prepare a solution having about 10^7 CFU/mL, which was used as a test microbe solution.
2) Preparation of Test Solution […]
3) Bactericidal Effect Test
From individual test solutions previously kept at 25±2° C., an aliquot (10 mL) was dispensed to centrifuge tubes of 50 mL in volume. To each of the centrifuge tubes, the test microbe solution (0.1 mL) was inoculated, mixed and allowed to react. After a predetermined reaction time, the resultant test solution (1 mL) was taken out. To this, 9 mL of a deactivator (SCDLP medium (manufactured by Eiken Chemical Co., Ltd.), which was confirmed as effective deactivator), was added to inactivate the bactericidal component of the test solution. The number of microbial cells in the resultant sample solution was determined. The solution obtained by carrying out the same procedure except that a sterile physiological saline was used in place of the test solution, was used as a control.
4) Determination of the Number of Microbial Cells
Using the sample solution as a stock solution, serial dilution was performed with a sterile physiological saline to obtain 10-fold serial dilutions. 1 mL of the sample solution or each of the dilutions was aseptically transferred to a petri dish, mixed with TSA medium (20 mL), solidified and cultured at 36±2° C. for 48 hours. After the culture, colonies grown on the medium were counted to obtain the number of test microbe cells per test solution (1 mL) (lower limit of quantification: 10 CFU/test solution (1 mL)).

For assay [3], the system named is Staphylococcus aureus MRSAIID 1677 (methicillin-resistant staphylococcus aureus; MRSA). Nature of the assay: Antimicrobial test, minimum inhibitory concentration (MIC), MRSA. As to conditions: 36±1° C., 24 hours. As for the experimental part:
Antimicrobial/Antifungal Test
Measurement of the Minimum Inhibitory Concentration (MIC) of a Test Substance
The minimum inhibitory concentration (MIC) of test substances (Compound 3, Compound 7) on a microorganism was measured.
1) Test Microbe (a) Staphylococcus aureus MRSAIID 1677 (methicillin-resistant staphylococcus aureus; MRSA) (b) Trichophyton mentagrophytes NBRC5466 (trichophyton)
2) Preparation of Microbe Solution for Inoculation
Test microbe (a): A strain cryopreserved was smeared on TSA medium and cultured at 36±1° C. for 24 hours. Grown colonies were scraped out and suspended in a test organism preparation solution, filtered with absorbent cotton. The number of cells was controlled to be about 10^6-7 CFU/mL. The test microbe solution prepared was serially diluted by 10-fold and cultured at 36±1° C. for 48 hours and the microbe cells were counted.
3) Serial Dilution of Test Substance
Two-fold serial dilutions of a test substance were prepared in the following procedure. To a test substance (1 mg), a medium (5 mL) for measuring the sensitivity of each microbe strains was added to obtain a stock solution of 200 μg/mL. […]
A test microbe solution (5 μL) was added dropwise to individual wells of the microplate. […] After culture, whether the microbe proliferated or not was determined by the naked eye. […]

Converted amounts (≈) assume the structure as drawn. Bounds are passed on as bounds.

A word on the MIC: it is the lowest concentration found to suppress growth. The low end stands for inhibition by little substance, the high end for a need for much substance.

As to `O=C(Oc1ccc(S(F)(F)(F)(F)F)cc1)c1cc(O)c(O)c(O)c1` [Compound 7, 4-(3,4,5-trihydroxybenzoyloxy)pentafluorosulfanylbenzene], the Bactericidal action in assay [1] turned out to be 156 μg/plate. In addition, in assay [1], the Growth inhibition is recorded as 19.5 μg/plate. Besides, the “number of test microbe cells” value in assay [2] (0.001 w/v %, working time 1 min) is recorded as 460,000 CFU/test solution (1 mL); in assay [2] (0.001 w/v %, working time 5 min), 280,000 CFU/test solution (1 mL); in assay [2] (0.005 w/v %, working time 1 min), <10 CFU/test solution (1 mL); in assay [2] (0.005 w/v %, working time 5 min), <10 CFU/test solution (1 mL). Also, the “bactericidal action on Streptococcus mutans cells” value in assay [2] (0.005 w/v %) was “almost completely killed”. In assay [3], the MIC was 0.8 µg/mL (≈ 2.15 µM).
Regarding `O=C(Nc1ccc(S(F)(F)(F)(F)F)cc1)c1cc(O)c(O)c(O)c1` [Compound 3, 4-(3,4,5-trihydroxybenzoylamino)pentafluorosulfanylbenzene], the Bactericidal action in assay [1] amounted to 625 μg/plate. In assay [1], this molecule yielded a Growth inhibition of 19.5 μg/plate. Further, the “number of the cells reduced (fraction)” value in assay [2] (0.01 w/v %, 5 minutes) is recorded as 1/10. The “number of test microbe cells” value was 380,000 CFU/test solution (1 mL) in assay [2] (0.01 w/v %, working time 1 min); 34,000 CFU/test solution (1 mL) in assay [2] (0.01 w/v %, working time 5 min); <10 CFU/test solution (1 mL) in assay [2] (0.05 w/v %, working time 1 min); <10 CFU/test solution (1 mL) in assay [2] (0.05 w/v %, working time 5 min). In assay [2] (0.05 w/v %), the “bactericidal action on Streptococcus mutans cells” value is “almost completely killed”. In assay [3], this molecule came in with an MIC of 6.3 µg/mL (≈ 17 µM).

The values are drawn from patent publication US9682931B2, “Aryloyl(oxy or amino)pentafluorosulfanylbenzene compound, pharmaceutically acceptable salt thereof, and prodrugs thereof” (UBE INDUSTRIES, LTD., priority 2013, dated 2017).
